From ChEMBL document CHEMBL1909046, “DrugMatrix in vitro pharmacology data”

Tests used:
[1] = molecular target: T1, Interstitial collagenase (Homo sapiens, UniProt P03956); experiment: biochemical; type: tissue-based, Rheumatoid synovial fibroblasts;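 also: MMP-1 enzyme inhibition assay using a peptide substrate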
T1 sequence (P03956 whole entry): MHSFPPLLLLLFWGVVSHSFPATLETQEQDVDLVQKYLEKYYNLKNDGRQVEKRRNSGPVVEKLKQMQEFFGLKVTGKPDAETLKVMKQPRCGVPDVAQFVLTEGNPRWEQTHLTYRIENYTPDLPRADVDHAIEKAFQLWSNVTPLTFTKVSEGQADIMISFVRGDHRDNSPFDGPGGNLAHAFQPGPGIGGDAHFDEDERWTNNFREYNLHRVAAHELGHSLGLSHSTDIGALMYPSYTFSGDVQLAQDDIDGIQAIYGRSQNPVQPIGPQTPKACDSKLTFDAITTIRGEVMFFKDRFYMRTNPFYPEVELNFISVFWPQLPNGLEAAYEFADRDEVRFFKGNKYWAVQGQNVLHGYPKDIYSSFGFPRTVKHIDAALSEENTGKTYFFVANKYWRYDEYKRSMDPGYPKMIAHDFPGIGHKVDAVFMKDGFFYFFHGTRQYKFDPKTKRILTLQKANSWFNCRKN

[2] = molecular target: T2, Androgen receptor (Rattus norvegicus, UniProt P15207)
T2 sequence (P15207 whole entry): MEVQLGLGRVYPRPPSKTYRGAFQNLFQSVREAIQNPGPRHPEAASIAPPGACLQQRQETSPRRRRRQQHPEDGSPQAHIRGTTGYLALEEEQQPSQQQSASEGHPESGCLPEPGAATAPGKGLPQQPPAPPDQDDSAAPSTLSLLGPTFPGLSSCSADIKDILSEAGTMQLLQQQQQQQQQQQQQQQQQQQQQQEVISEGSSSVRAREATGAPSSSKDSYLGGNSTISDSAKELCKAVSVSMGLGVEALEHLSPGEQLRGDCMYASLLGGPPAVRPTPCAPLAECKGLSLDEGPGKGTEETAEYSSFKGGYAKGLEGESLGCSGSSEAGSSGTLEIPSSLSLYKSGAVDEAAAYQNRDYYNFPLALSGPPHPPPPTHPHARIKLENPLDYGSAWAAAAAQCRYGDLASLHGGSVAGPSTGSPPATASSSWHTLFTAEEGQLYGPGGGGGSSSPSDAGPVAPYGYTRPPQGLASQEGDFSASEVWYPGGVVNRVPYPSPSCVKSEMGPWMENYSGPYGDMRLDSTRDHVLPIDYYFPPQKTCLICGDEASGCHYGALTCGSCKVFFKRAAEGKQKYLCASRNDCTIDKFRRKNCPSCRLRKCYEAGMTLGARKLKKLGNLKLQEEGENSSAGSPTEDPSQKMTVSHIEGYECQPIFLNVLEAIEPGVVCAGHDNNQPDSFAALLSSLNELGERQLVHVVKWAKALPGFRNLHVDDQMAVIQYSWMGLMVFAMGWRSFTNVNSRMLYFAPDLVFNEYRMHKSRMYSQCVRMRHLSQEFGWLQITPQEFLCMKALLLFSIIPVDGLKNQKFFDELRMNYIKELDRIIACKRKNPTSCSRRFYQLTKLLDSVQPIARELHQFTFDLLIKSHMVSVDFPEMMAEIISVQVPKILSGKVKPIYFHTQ

[3] = molecular target: Cytochrome P450 2C19 (Homo sapiens, UniProt P33261)
Sequence of Cytochrome P450 2C19 (P33261 whole entry): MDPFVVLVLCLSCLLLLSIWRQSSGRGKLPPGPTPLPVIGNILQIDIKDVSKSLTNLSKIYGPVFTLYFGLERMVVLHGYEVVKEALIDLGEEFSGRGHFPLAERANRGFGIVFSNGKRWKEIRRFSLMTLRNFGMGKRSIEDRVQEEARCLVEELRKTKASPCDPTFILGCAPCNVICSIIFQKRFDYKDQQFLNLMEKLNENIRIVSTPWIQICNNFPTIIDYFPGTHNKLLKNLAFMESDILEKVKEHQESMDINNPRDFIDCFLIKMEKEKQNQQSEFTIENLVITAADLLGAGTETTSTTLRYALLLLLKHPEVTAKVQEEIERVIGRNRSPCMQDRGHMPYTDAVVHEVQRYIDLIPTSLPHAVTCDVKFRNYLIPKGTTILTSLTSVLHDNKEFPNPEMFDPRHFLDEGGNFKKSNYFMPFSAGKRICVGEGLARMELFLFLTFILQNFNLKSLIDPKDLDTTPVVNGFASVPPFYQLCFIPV

[4] = molecular target: T3, Glucocorticoid receptor (Homo sapiens, UniProt P04150); experiment: biochemical
T3 sequence (P04150 whole entry): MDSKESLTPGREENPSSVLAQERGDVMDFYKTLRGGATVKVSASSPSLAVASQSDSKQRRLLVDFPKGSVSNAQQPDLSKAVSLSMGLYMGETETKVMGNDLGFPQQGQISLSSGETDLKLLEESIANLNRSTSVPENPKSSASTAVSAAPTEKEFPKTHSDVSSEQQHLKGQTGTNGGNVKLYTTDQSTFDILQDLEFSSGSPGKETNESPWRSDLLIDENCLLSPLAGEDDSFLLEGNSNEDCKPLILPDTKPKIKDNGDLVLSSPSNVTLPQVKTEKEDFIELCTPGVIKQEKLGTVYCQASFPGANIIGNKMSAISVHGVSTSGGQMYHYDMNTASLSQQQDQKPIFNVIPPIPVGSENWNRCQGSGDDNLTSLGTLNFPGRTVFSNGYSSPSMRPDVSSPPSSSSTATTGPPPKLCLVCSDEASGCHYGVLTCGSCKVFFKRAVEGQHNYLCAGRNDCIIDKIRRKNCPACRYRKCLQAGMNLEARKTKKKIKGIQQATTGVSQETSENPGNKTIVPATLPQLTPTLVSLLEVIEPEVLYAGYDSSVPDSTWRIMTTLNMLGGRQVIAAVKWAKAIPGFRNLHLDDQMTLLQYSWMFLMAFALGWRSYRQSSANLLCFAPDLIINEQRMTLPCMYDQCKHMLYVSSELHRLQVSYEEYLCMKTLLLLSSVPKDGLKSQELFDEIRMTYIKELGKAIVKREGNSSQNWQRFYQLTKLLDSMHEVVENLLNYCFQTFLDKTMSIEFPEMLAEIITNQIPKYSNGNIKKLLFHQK

[5] = molecular target: Voltage-gated inwardly rectifying potassium channel KCNH2 (Homo sapiens, UniProt Q12809)
Sequence of Voltage-gated inwardly rectifying potassium channel KCNH2 (Q12809 whole entry): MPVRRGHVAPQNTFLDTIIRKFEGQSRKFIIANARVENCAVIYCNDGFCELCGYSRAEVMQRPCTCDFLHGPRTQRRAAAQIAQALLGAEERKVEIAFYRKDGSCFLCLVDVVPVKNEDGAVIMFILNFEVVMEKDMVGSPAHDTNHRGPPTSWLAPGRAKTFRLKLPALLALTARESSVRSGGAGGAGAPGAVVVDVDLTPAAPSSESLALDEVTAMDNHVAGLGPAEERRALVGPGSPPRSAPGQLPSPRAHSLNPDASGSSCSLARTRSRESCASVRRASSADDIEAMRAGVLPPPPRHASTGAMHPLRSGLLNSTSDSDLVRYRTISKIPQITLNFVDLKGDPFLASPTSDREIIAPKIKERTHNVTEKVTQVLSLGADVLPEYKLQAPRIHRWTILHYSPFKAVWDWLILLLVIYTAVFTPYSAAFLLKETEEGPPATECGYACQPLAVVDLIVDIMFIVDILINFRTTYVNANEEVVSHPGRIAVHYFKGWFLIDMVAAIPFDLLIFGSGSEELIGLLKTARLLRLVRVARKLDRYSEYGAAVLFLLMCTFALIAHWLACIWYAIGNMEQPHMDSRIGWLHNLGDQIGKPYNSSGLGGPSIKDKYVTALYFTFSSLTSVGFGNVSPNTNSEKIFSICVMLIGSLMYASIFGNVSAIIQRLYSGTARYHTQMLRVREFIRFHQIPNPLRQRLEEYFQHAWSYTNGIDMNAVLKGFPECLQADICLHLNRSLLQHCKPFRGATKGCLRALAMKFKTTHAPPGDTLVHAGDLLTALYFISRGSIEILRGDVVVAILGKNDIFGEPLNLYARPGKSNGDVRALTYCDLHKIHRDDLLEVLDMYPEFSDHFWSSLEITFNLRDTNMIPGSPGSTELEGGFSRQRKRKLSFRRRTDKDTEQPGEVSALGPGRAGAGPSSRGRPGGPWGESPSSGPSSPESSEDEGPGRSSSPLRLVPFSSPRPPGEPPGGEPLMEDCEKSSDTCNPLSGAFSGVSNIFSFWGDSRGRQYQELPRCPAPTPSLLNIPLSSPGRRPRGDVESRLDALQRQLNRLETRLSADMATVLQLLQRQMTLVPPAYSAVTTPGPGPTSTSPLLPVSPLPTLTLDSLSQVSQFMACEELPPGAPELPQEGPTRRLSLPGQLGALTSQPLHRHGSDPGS

[6] = molecular target: Cytochrome P450 2D6 (Homo sapiens, UniProt P10635)
Sequence of Cytochrome P450 2D6 (P10635 whole entry): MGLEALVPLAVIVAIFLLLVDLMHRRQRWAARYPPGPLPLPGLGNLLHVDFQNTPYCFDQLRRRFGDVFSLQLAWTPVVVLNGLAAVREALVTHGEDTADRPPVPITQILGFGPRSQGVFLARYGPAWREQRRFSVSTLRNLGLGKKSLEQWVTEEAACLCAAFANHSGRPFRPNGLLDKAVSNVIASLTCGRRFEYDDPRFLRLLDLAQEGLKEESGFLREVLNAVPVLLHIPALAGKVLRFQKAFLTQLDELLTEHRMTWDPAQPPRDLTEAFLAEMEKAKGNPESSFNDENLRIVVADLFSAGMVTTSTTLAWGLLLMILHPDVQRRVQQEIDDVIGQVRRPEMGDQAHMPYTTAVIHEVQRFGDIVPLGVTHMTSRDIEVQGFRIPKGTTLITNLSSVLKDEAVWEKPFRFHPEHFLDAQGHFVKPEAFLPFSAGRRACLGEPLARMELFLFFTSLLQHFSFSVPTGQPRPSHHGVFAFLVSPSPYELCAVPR

[7] = molecular target: T4, Cytochrome P450 1A2 (Homo sapiens, UniProt P05177)
T4 sequence (P05177 whole entry): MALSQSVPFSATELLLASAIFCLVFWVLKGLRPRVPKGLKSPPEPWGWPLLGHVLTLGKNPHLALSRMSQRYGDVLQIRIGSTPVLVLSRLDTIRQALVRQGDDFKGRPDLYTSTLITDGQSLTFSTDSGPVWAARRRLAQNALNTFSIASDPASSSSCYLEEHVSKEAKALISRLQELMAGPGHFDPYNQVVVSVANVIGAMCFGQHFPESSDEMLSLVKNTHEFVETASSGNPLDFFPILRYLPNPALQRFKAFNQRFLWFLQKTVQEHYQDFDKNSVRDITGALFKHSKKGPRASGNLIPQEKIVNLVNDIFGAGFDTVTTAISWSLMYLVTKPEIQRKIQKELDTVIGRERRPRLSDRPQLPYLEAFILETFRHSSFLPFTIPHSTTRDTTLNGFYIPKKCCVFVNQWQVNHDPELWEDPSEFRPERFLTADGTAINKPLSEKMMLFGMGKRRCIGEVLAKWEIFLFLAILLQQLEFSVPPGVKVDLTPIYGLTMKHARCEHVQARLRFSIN

[8] = molecular target: Cytochrome P450 2C9 (Homo sapiens, UniProt P11712)
Sequence of Cytochrome P450 2C9 (P11712 whole entry): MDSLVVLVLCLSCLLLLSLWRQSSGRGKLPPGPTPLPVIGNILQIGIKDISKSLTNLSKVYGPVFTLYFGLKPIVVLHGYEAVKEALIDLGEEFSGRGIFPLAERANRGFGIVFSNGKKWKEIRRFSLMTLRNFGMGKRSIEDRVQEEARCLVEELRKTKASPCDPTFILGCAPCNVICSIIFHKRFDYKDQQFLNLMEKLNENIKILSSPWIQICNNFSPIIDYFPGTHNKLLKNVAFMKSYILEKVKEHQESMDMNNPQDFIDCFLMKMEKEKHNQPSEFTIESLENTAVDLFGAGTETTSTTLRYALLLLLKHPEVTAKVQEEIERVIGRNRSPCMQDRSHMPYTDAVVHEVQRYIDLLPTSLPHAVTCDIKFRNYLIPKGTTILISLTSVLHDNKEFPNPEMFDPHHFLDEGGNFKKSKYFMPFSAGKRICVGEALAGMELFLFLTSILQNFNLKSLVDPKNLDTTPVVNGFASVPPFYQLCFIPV
Also: in other assays of this panel Not Active means under 50% inhibition at 10 µM.

| Compound | IC50 [1] | also measured |
| --- | --- | --- |
| COc1nc(C)nc(Cl)c1NC1=NCCN1 [MOXONIDINE] | Not Active |  |
| N[C@@H](Cc1ccc(O)c(O)c1)C(=O)O [LEVODOPA] | Not Active |  |
| OCCN(CCO)c1nc(N2CCCCC2)c2nc(N(CCO)CCO)nc(N3CCCCC3)c2n1 [DIPYRIDAMOLE] | Not Active | IC50 [2]: Not Active |
| Cn1ccnc1S [METHIMAZOLE] | Not Active |  |
| CC(=O)[C@@]1(O)CC[C@H]2[C@@H]3C[C@H](C)C4=CC(=O)CC[C@]4(C)[C@H]3CC[C@@]21C | Not Active | IC50 [3]: 2000 nM; IC50 [4]: 19 nM; Ki [4]: 8.6 nM |
| C=CCC1(C(C)CCC)C(=O)NC(=O)NC1=O (centres undefined) [SECOBARBITAL] | Not Active |  |
| C[C@@H]1CN(c2c(F)c(N)c3c(=O)c(C(=O)O)cn(C4CC4)c3c2F)C[C@H](C)N1 [SPARFLOXACIN] | Not Active | IC50 [5]: 47100 nM; Ki [5]: 38600 nM |
| O=c1ncn2nc(Sc3ccc(F)cc3F)ccc2c1-c1c(Cl)cccc1Cl [NEFLAMAPIMOD] | Not Active | IC50 [2]: Not Active |
| Nc1c2c(nc3ccccc13)CCCC2 [TACRINE] | Not Active | IC50 [6]: 300 nM |
| CO[C@H]1/C=C/O[C@@]2(C)Oc3c(C)c(O)c4c(O)c(c(/C=N/N5CCN(C)CC5)c(O)c4c3C2=O)NC(=O)/C(C)=C\C=C\[C@H](C)[C@H](O)[C@@H](C)[C@@H](O)[C@@H](C)[C@H](OC(C)=O)[C@@H]1C [RIFAMPIN] | Not Active |  |
| CCCCc1oc2ccccc2c1C(=O)c1cc(I)c(OCCN(CC)CC)c(I)c1 [AMIODARONE] | Not Active |  |
| CCOC(=O)N1CCC(=C2c3ccc(Cl)cc3CCc3cccnc32)CC1 [LORATADINE] | Not Active |  |
| N[C@@H](Cc1ccc(N(CCCl)CCCl)cc1)C(=O)O | Not Active |  |
| Cc1noc(NS(=O)(=O)c2ccc(N)cc2)c1C [SULFISOXAZOLE] | Not Active |  |
| N[C@@H](Cc1cc(I)c(Oc2ccc(O)c(I)c2)c(I)c1)C(=O)O [LIOTHYRONINE] | Not Active |  |
| c1ccc([C@H]2CN3CCSC3=N2)cc1 [LEVAMISOLE] | Not Active |  |
| CC1(C)O[C@@H]2C[C@H]3[C@@H]4CCC5=CC(=O)C=C[C@]5(C)[C@@]4(F)[C@@H](O)C[C@]3(C)[C@]2(C(=O)CO)O1 [TRIAMCINOLONE ACETONIDE] | Not Active | IC50 [4]: 4.41 nM; Ki [4]: 2.01 nM |
| N#CC(C#N)=Cc1ccc(O)c(O)c1 [TYRPHOSTIN 23] | Not Active | IC50 [2]: Not Active |
| Nc1nc2nc[nH]c2c(=S)[nH]1 [THIOGUANINE] | Not Active | IC50 [2]: Not Active |

| Compound | IC50 [1] | also measured |
| --- | --- | --- |
| NS(=O)(=O)c1cc2c(cc1Cl)NC(C(Cl)Cl)NS2(=O)=O (centres undefined) [TRICHLORMETHIAZIDE] | Not Active |  |
| CC(C)N1CCN(c2ccc(OCC3COC(Cn4cncn4)(c4ccc(Cl)cc4Cl)O3)cc2)CC1 (centres undefined) [TERCONAZOLE] | Not Active |  |
| CN1CCN(CCCN2c3ccccc3Sc3ccc(Cl)cc32)CC1 [PROCHLORPERAZINE] | Not Active | IC50 [7]: 2000 nM |
| CC(C)(C)NC(=O)[C@@H]1C[C@@H]2CCCC[C@@H]2CN1C[C@@H](O)[C@H](Cc1ccccc1)NC(=O)[C@H](CC(N)=O)NC(=O)c1ccc2ccccc2n1 | Not Active |  |
| SODIUM NITROPRUSSIDE | Not Active | Ki [1]: Not Active; IC50 [2]: Not Active; Ki [2]: Not Active |
| NC[C@H]1CC[C@H](C(=O)O)CC1 [TRANEXAMIC ACID] | Not Active |  |
| CC/C(=C(\c1ccccc1)c1ccc(OCCN(C)C)cc1)c1ccccc1 [TAMOXIFEN] | Not Active |  |
| N[C@@H]1[C@H]2CN(c3nc4c(cc3F)c(=O)c(C(=O)O)cn4-c3ccc(F)cc3F)C[C@@H]12 [TROVAFLOXACIN] | Not Active | IC50 [2]: Not Active |
| CC[C@@H](CO)NC(=O)[C@@H]1C=C2c3cccc4[nH]cc(c34)C[C@H]2N(C)C1 [METHYLERGONOVINE] | Not Active | IC50 [2]: Not Active |
| Cc1cccc(N(C)C(=S)Oc2ccc3ccccc3c2)c1 [TOLNAFTATE] | Not Active | IC50 [3]: 3000 nM |
| Cc1oncc1C(=O)Nc1ccc(C(F)(F)F)cc1 [LEFLUNOMIDE] | Not Active | IC50 [7]: 500 nM |
| Nc1nc2ccc(OC(F)(F)F)cc2s1 [RILUZOLE] | Not Active |  |
| Cc1c(C)c2c(c(C)c1O)CCC(C)(COc1ccc(CC3SC(=O)NC3=O)cc1)O2 (centres undefined) [TROGLITAZONE] | Not Active | IC50 [2]: Not Active; IC50 [8]: 4000 nM |
| Cc1nc2n(c(=O)c1CCN1CCC(c3noc4cc(F)ccc34)CC1)CCCC2 [RISPERIDONE] | Not Active | IC50 [6]: 5270 nM |
| CCCOc1ccccc1-c1nc2nn[nH]c2c(=O)[nH]1 [ZAPRINAST] | Not Active |  |
| CC[C@]1(O)C[C@H]2CN(CCc3c([nH]c4ccccc34)[C@@](C(=O)OC)(c3cc4c(cc3OC)N(C=O)[C@H]3[C@@](O)(C(=O)OC)[C@H](OC(C)=O)[C@]5(CC)C=CCN6CC[C@]43[C@@H]65)C2)C1 [VINCRISTINE] | Not Active | IC50 [2]: Not Active |
| COc1c(C)c2c(c(O)c1C/C=C(\C)CCC(=O)O)C(=O)OC2 [MYCOPHENOLIC ACID] | Not Active |  |
| CSc1ccc(/C=C2/C(C)=C(CC(=O)O)c3cc(F)ccc32)cc1 [SULINDAC SULFIDE] | Not Active | IC50 [7]: 2000 nM; IC50 [2]: Not Active |
| O=NN(CCCl)C(=O)NC1CCCCC1 [LOMUSTINE] | Not Active |  |
